Measured values from patent US20240226041A1, “METHODS AND COMPOSITIONS FOR TREATMENT OF NEUROPATHIC PAIN USING STAT3 INHIBITORS” (priority 2021, published 2024).
Entries after “also recorded” stand apart in the source; their conditions may differ.

Assays:
DRG neurons = assay: Example 4: DRG neuron Ca2+ flux and multi-electrode array recording, SNI mice; type: cell-based, mouse; conditions: SNI mice with/without TTI-101 treatment
Protocol: Spontaneous and evoked Ca^2+ flux in DRG neuron cultures is assessed. […] Electrical activity is assessed ex vivo using multi-electrode array recording. […] Assessment of Ca^2+ flux allows activity assessment with single cell resolution, which is important in a heterogeneous sensory population. Calcium imaging also serves as a more direct indicator of disruptions to calcium homeostasis i.e. mitochondrial dysfunction, which may result from injury and/or prolonged neuroinflammation. Electrical activity assessment can be carried out longitudinally and is a more proximate indicator of the likely level of sensory input driving neuropathic pain.

[1] = system: male and female C57BL/6j mice; assay: Spared nerve injury (SNI) model, von Frey mechanical allodynia; type: in vivo, mouse
Protocol: Data are shown as mean±SEM and were analyzed using two-way ANOVA followed by Sidak's post-hoc test. *P<0.05. […] Data are from 4 vehicle-treated and 5 TTI-101-treated male mice per group). Two-way ANOVA followed by Sidak's post-hoc test: P<0.05.
SNI induced profound mechanical allodynia in male and female mice.
Spared nerve injury (SNI). SNI surgery was performed on male and female C57BL/6j mice (8 weeks old; Jackson Laboratories), as described (Singhmar et al., 2020). The sural, common peroneal and tibial branches of the sciatic nerve of the left hind paw were exposed under isoflurane anesthesia. A silk suture was used to ligate the common peroneal and tibial branches and 2-4 mm of the distal ends were removed. The sural nerve was left intact. Mice received buprenorphine right before and 1 hour after surgery. […] Mechanical sensitivity was monitored over time using von Frey hairs.

male C57BL/6 mice [2] = assay: Cisplatin model of chemotherapy-induced peripheral neuropathy (CIPN), von Frey mechanical allodynia; type: in vivo, mouse; conditions: 50 mg/kg i.p. every other day
Protocol: (§1) Data were analyzed by two-way ANOVA repeated measures. Time: P<0.001; Group: P<0.001; Interaction P<0.001. **P<0.01 Tukey multiple comparison test. Data are from a representative experiment out of two with similar results.
Male C57/B16 mice (n=4 per group) were treated with cisplatin (two rounds of 5 daily doses of 2.3 mg/kg i.p. followed by 5 days of rest). […] Data were analyzed by two-way ANOVA repeated measures. Time: P<0.001; Group: P<0.001; Interaction P<0.01. **P<0.01 Tukey multiple comparison test.
(§2) Peripheral neuropathy has been observed with several small-molecule STAT3 inhibitors in clinical-stage development (Bendell et al., 2014; Genini et al., 2017; Ogura et al., 2015). […] This model was selected because it was shown previously that it is mediated by mitochondrial damage in the peripheral nervous system (Krukowski et al., 2017; Maj, Ma, Krukowski, Kavelaars & Heijnen, 2017). […] (FIG. 12).
(§3) Pain measurements and chemotherapy-induced peripheral neuropathy (CIPN).

DRG transcriptome = assay: RNA-seq and IPA analysis of dorsal root ganglia of cisplatin-treated mice; type: in vivo, mouse
Source text: Expression of 1,973 genes was changed in response to cisplatin when compared to the PBS mice (PBS vs. Cis; n=3 male mice per group). […] A cutoff of (−0.2<log 2 Fold Change <0.2) and p=0.1 was used for the analysis. […] Gray indicates effect cannot be predicted.
The mechanistic network of four regulators identified STAT3 as an intermediate regulator. […] For example, for the TP53 network, 14 regulators were part of the mechanistic network which together influence expression of 481 genes and out of these 481 genes, 64 target genes are controlled by STAT3.
RNA-seq and transcriptome analysis of dorsal root ganglion (DRG). […] Total RNA was isolated with the RNeasy MinElute Cleanup Kit (Qiagen, Hilden, Germany). Libraries were prepared with the Stranded mRNA-Seq kit (Kapa Biosystems, Wilmington, MA) following the manufacturer's guidelines. Stranded-mRNA seq was performed with a HiSeq4000 Sequencer (Illumina, San Diego, CA) with 76nt PE format by the RNA Sequencing Core at MD Anderson Cancer Center. Data analysis was performed as previously described (Chiu et al., 2018; Ma et al., 2019). Briefly, expression data of three samples per group were analyzed in R using bioconductor packages. STAR was used for alignment of paired-end reads to the mm10 version of the mouse reference genome; feature Counts was used to assign mapped sequence reads to genomic features, and DESeq2 was used to identify differentially expressed genes (padj<0.05). Quality check of raw and aligned reads was performed with FastQC and Qualimap. Next, we used Ingenuity Pathway Analysis (IPA; Qiagen Inc., https://www.qiagenbioinformatics.com/products/ingenuity-pathway-analysis/) for analysis of the canonical pathways implicated by cisplatin-induced transcriptome changes in DRG.

male C57BL/6 mice [3] = assay: Mechanical sensitivity (von Frey) in mice given TTI-101 alone; type: in vivo, mouse; conditions: 50 mg/kg i.p. every other day, 7 doses
Protocol: as §1, §2, §3

[4] = Cis+TTI-101 vs. cisplatin alone

With `COc1ccc(S(=O)(=O)Nc2cc(-c3c(O)ccc4ccccc34)c(O)c3ccccc23)cc1` [TTI-101] the “spontaneous activity and baseline cytosolic Ca2+ concentration in DRG neurons ipsilateral to injury” value (DRG neurons) was “reverses elevations”, the “SNI-induced mechanical allodynia, administration” value ([1]; 50 mg/kg oral gavage from day 10 after SNI, male and female mice) was “reduced mechanical allodynia” and the “SNI-induced mechanical allodynia, repeated dosing” value ([1]; 50 mg/kg oral gavage, 6 doses every other day from day 10 after SNI, male and female mice) was “complete reversal; also recorded: reverses SNI-induced allodynia”. The “mechanical allodynia at 31 and 52 days after start of treatment” value ([1]; 19 and 40 days after the last dose, male mice) was “no signs of mechanical allodynia”, the “day until which beneficial effect was sustained” value ([1]; after start of treatment, male mice) was 52 days and the “time after the last dose for which beneficial effect was sustained” value ([1]; male mice) was 40 days. For the same compound, the “dose after which maximal inhibition of allodynia was obtained” value (male C57BL/6 mice [2]) was “after the 4th dose”, the “time after last dose at which mechanical allodynia returned to levels of cisplatin alone” value (male C57BL/6 mice [2]; 7 doses) was 4 days and the cisplatin-induced mechanical allodynia (male C57BL/6 mice [2]; 7 doses, after two cycles of cisplatin 2.3 mg/kg) was “markedly reduced; also recorded: reverses mechanical allodynia caused by cisplatin”. For the same compound, the “genes down in DRG” value (DRG transcriptome; [4]) was 1,416 genes, the “genes up in DRG” value (DRG transcriptome; [4]) was 297 genes and the “genes with changed expression in DRG” value (DRG transcriptome; Cis+TTI-101 vs. cisplatin alone, 4 hours after fourth dose) was 1,713 genes. The “genes altered in both groups with overall opposite expression pattern (normalized)” value (DRG transcriptome; PBS vs. Cis and Cis vs. Cis+TTI-101) was 443 genes, the “genes with changed expression in DRG” value (DRG transcriptome; TTI-101 vs. PBS) was 2,154 genes and the “VEGF signaling (IPA comparison analysis)” value (DRG transcriptome; cisplatin-treated mice receiving TTI-101) was “inhibited”. For the same compound, the “STAT3 activity in IPA mechanistic networks” value (DRG transcriptome; upstream regulator analysis of 1,713 DEG) was “reduced in all networks” and the “mechanical sensitivity / mechanical allodynia caused by compound alone” value (male C57BL/6 mice [3]) was “had no effect on mechanical sensitivity; also recorded: does not cause mechanical allodynia”.
